From patent US7320981B2, “Variolin derivatives as anti-cancer agents” (Pharma Mar, S.A., priority 2000, dated 2008)

How the values were obtained:
[1] = tested on: MCF-7; assay: SRB cell growth/viability assay, MCF-7
Description: (§1) A colorimetric type of assay, using sulforhodamine B (SRB) reaction has been adapted for a quantitative measurement of cell growth and viability: see Skehan, P. A. et al. J. Natl. Cancer Inst., 1990, 82, 1107-1112. This form of the assay employs 96 well cell culture microplates of 9 mm diameter (Faircloth, G. T.; Stewart, D. and Clement, J. J., Journal of Tissue and Culture Methods, 1983, 11, 201-205; Mosmann, T. Journal of Immunological Methods, 1983, 65, 55-63.).
(§2) Most of the cell lines are obtained from American Type Culture Collection (ATCC) derived from different human cancer types. Cells are maintained in RPMI 1640 10% FBS, supplemented with 0.1 g/l penicillin and 0.1 g/l streptomycin sulfate and then incubated at 37° C., 5% CO2 and 98% humidity. For the experiments, cells were harvested from subconfluent cultures using trypsin and resuspended in fresh medium before plating.
(§3) Cells are seeded in 96 well microtiter plates, at 5×10^3 cells per well in aliquots of 195 μl medium, and they are allowed to attach to the plate surface by growing in drug free medium for 18 hours. Afterward, samples are in aliquots of 5 pi in a ranging from 10 to 10-8 μg/ml dissolved in DMSO/EtOH (0.2% in PS buffer). After 48 hours exposure, the antitumour effect are measured by the SRB methodology: cells are fixed by adding 50 μl of cold 50% (w/v) trichloroacetic acid (TCA) and incubating for 60 minutes at 4° C. Plates are washed with deionized water and dried. 100 μl of SRB solution (0.4% w/v in 1% acetic acid) is added to each microtiter well and incubated for 10 minutes at room temperature. Unbound SRB is removed by washing with 1% acetic acid. Plates are air-dried and bound stain is solubilized with Tris buffer. Optical densities are read on an automated spectrophotometric plate reader at a single wavelength of 490 nm.
(§4) The values for mean +/− SD of data from triplicate wells are calculated Some parameters for cellular responses can be calculated: […], TGI=total growth inhibition (cytostatic effect) and LC=cell killing (cytotoxic effect).

[2] = tested on: MEL-28; assay: SRB cell growth/viability assay, MEL-28
Description: as §1, §2, §3, §4

[3] = tested on: A498; assay: SRB cell growth/viability assay, A498
Description: as §1, §2, §3, §4

[4] = tested on: OVCAR-3; assay: cells; type: cell-based; details: Table 1, ovary cell line OVCAR-3, 48 hours exposure, SRB
Description: Plates are washed with deionized water and dried.

[5] = tested on: SW-620; assay: SRB cell growth/viability assay, SW-620
Description: as §1, §2, §3, §4

[6] = tested on: DU-145; assay: SRB cell growth/viability assay, DU-145
Description: as §1, §2, §3, §4

[7] = tested on: MB-231; assay: SRB cell growth/viability assay, MB-231
Description: as §1, §2, §3, §4

[8] = tested on: HT-29; assay: SRB cell growth/viability assay, HT-29
Description: as §1, §2, §3, §4

[9] = tested on: A-549; assay: SRB cell growth/viability assay, A-549
Description: as §1, §2, §3, §4

CSc1nccc(-c2c3cccnc3n3c(N)nccc23)n1 [Compound 5, thiodeoxyvariolin]
GI50 ([1]; Homo sapiens, MCF7, 48 h, read-out: GI50 (50% growth inhibition)): 2000 nM | CC50 ([1]; Homo sapiens, MCF7, 48 h, read-out: LC50 (50% net cell killing, cytotoxic effect)): 30000 nM | TGI (total growth inhibition, cytostatic effect) ([1]; Table 1, breast cell line MCF-7, 48 hours exposure, SRB): 6.E−06 M | GI50 ([2]; Homo sapiens, SK-MEL-28, 48 h, read-out: GI50 (50% growth inhibition)): 60 nM | CC50 ([2]; Homo sapiens, SK-MEL-28, 48 h, read-out: LC50 (50% net cell killing, cytotoxic effect)): 6000 nM | TGI (total growth inhibition, cytostatic effect) ([2]; Table 1, melanoma cell line MEL-28, 48 hours exposure, SRB): 3.E−07 M | GI50 ([3]; Homo sapiens, A498, 48 h, read-out: GI50 (50% growth inhibition)): 600 nM | CC50 ([3]; Homo sapiens, A498, 48 h, read-out: LC50 (50% net cell killing, cytotoxic effect)): 3000 nM | TGI (total growth inhibition, cytostatic effect) ([3]; Table 1, kidney cell line A498, 48 hours exposure, SRB): 2.E−06 M | GI50 ([4]; Homo sapiens, read-out: GI50 (50% growth inhibition)): 1000 nM | CC50 ([4]; Homo sapiens, read-out: LC50 (50% net cell killing, cytotoxic effect)): 3000 nM | TGI (total growth inhibition, cytostatic effect) [4]: 2.E−06 M | GI50 ([5]; Homo sapiens, SW-620, 48 h, read-out: GI50 (50% growth inhibition)): 3000 nM | CC50 ([5]; Homo sapiens, SW-620, 48 h, read-out: LC50 (50% net cell killing, cytotoxic effect)): 30000 nM | TGI (total growth inhibition, cytostatic effect) ([5]; Table 1, colon cell line SW-620, 48 hours exposure, SRB): 1.E−05 M | GI50 ([6]; Homo sapiens, DU-145, 48 h, read-out: GI50 (50% growth inhibition)): 300 nM | CC50 ([6]; Homo sapiens, DU-145, 48 h, read-out: LC50 (50% net cell killing, cytotoxic effect)): 3000 nM | TGI (total growth inhibition, cytostatic effect) ([6]; Table 1, prostate cell line DU-145, 48 hours exposure, SRB): 1.E−06 M | GI50 ([7]; Homo sapiens, 48 h, read-out: GI50 (50% growth inhibition)): 2000 nM | CC50 ([7]; Homo sapiens, 48 h, read-out: LC50 (50% net cell killing, cytotoxic effect)): 10000 nM | TGI (total growth inhibition, cytostatic effect) ([7]; Table 1, breast cell line MB-231, 48 hours exposure, SRB): 6.E−07 M | GI50 ([8]; Homo sapiens, HT-29, 48 h, read-out: GI50 (50% growth inhibition)): 600 nM | CC50 ([8]; Homo sapiens, HT-29, 48 h, read-out: LC50 (50% net cell killing, cytotoxic effect)): 10000 nM | TGI (total growth inhibition, cytostatic effect) ([8]; Table 1, colon cell line HT-29, 48 hours exposure, SRB): 2.E−06 M | GI50 ([9]; Homo sapiens, A549, 48 h, read-out: GI50 (50% growth inhibition)): 1000 nM | CC50 ([9]; Homo sapiens, A549, 48 h, read-out: LC50 (50% net cell killing, cytotoxic effect)): 10000 nM | TGI (total growth inhibition, cytostatic effect) ([9]; Table 1, NSCL cell line A-549, 48 hours exposure, SRB): 3.E−06 M
